From patent US20250002854A1, “METHODS OF GENERATING POPULATIONS OF TUMOUR-INFILTRATING T CELLS” (LYTIX BIOPHARMA AS, priority 2016, published 2025)
Square brackets hold non-standard residues; d marks the D form. Ends that are not written are not given here. Dip = N[C@H](C(=O)O)C(c1ccccc1)c1ccccc1

Tests used:
HEPG2 = test: In vitro cytotoxicity, MTT assay; type: cell-based; settings: HEPG2 human hepatocellular carcinoma
Source text: (§1) JM1, a rat hepatocellular carcinoma, HEPG2 and BEL7402, both human hepatocellular carcinomas, were kindly provided by Dr. Pål-Dag Line, Director, Department of Transplantation Medicine, Oslo University Hospital. B16F1 (ATCC, CRL-6323), a murine skin malignant melanoma, MDA-MB-435S (HTB-129), a human malignant melanoma originating from a breast metastases, Malme-3M (HTB-64), a human malignant melanoma derived from a lung metastases, MRC-5 (ATCC, CCL-171), normal human lung fibroblasts, SK-N-AS (ATCC, CRL-2137), a human neuroblastoma cell line derived from a bone marrow metastases, HT-29 (ATCC, HTB-38), a human colorectal adenocarcinoma and HUV-EC-C (ATCC, CRL-1730), a human vascular endothelium cell line, were all purchased from the American Type Culture Collection (ATCC-LGC Standards, Rockville, MD, USA). HaCat, a human keratinocyte cell line, was kindly provided by Dr. Ingvild Pettersen, Department of Host Microbe Interactions, University of Tromsø. A375, a malignant melanoma cell line of human origin, was purchased from Public Health England (PHE Culture Conditions, Porton, Down, Salisbury, UK). JM1, A375, BEL7402, HEPG2 and B16F1 were all maintained in culture media consisting of DMEM (high glucose), while SK-N-AS, HT-29 and MDA-MB-435S were cultured in an RPMI-1640 medium containing 2 mM L-glutamine and sodium bicarbonate. Malme-3M was cultured in RPMI-1640, containing 4 mM L-glutamine and 20% FBS (fetal bovine serum). Lastly, the three non-malignant cell lines, HUV-EC-C, MRC-5 and HaCat, were cultured, respectively, using the EGM-2 BulletKit (Lonza, MA), containing basal media and growth factors, MEM (normal glucose) also containing 2 mM L-glutamine and 1% non-essential amino acids and DMEM (normal glucose) containing 2 mM L-glutamine. All media were (if not specified otherwise) supplemented with 10% FBS, with the exception of the EGM-2 BulletKit, which is delivered with an aliquot of 10 ml FBS to yield a final concentration of 2% FBS in solution. […]

MDA-MB-435S = test: In vitro cytotoxicity, MTT assay; type: cell-based; settings: MDA-MB-435S human malignant melanoma
Source text: as §1

remaining cell lines = test: In vitro cytotoxicity, MTT assay; type: cell-based
Source text: as §1

A375 cells = test: Release of cytochrome-C (ELISA); type: cell-based, human; settings: 35 μM
Procedure: A375 cells were seeded as with HMGB1 studies, and treated with 35 μM for different time points (5, 15, 45). Supernatants were collected and concentrated as with HMGB1 studies, and samples from the supernatants were analyzed using a 4.5 hour solid form Cytochrome C-Elisa kit (R&D Systems, USA, #DCTC0) following the manufacturer's description. Shortly thereafter, a 50% diluted sample was analyzed and the optical density was determined using a microplate reader set at 450 nm, and […]. A standard curve was generated for each set of samples assayed. Samples were run in four parallels, and the cytochrome-c released into the supernatant was expressed as a fold over the level of cytochrome-c in the supernatant of untreated cells.

[1] = test system: rat transformed mesenchymal stem cell-derived sarcoma (rTMSC); test: FACS analysis of TILs in rat rTMSC sarcoma model; type: in vivo; settings: for percentage of T cells / CD8+ cells within the CD3+ T cell population: mean±SD
Procedure: Pre-cultured rat transformed mesenchymal stem cell-derived sarcoma model cells (rTMSCs) were harvested in serum free RPMI-1640 and 200,000 rTMSCs were subcutaneously inoculated in the right flank into PVG rats on day ÷2 and 20,000 rTMSCs in the opposite flank on day 0. Established tumours (25 mm^2 mean tumour size) were injected intralesionally with LTX-315 (dissolved in sterile H2O with 0.9% NaC ) (n=8) or with vehicle (sterile H2O with 0.9% NaCl) (n=6). Treatment doses of LTX-315, 50 μl at […] (1 mg), were given using a 1 ml syringe (Myjector U-100, Terumo) needle 0.5×16 mm (Fine-Ject; Henke-Sass, Wolf GmbH. Injections were provided daily for three subsequent days. Tumour size was measured three times a week using a caliper and expressed as the area of an ellipse [(maximum dimension/2)×(minimum dimension/2)]. Animals were terminated when the tumor exceeded 400 mm^2.
Single-cell suspensions were prepared from fresh tumour tissue at different time points during the week after LTX-315 treatment. Tumours were gently minced with a razor blade and cut into small pieces (4 mm^2). Tumour tissue was incubated with Liberase TM (Thermolysin Medium; Roche Diagnostics) at a concentration of 0.18 Wünsch units/ml in 10 ml MEM media (Sigma-Aldrich) at 37° C. for 60 min with gentle agitation. The enzymatic digestion was terminated by addition of 2 ml 4° C. FCS (Invitrogen, Thermo Fischer). The cell suspension was filtered through a […] mesh (Cell Strainer; BD), washed in PBS and cells were then directly used for flow cytometric staining.
The mouse monoclonal antibodies against CD4 ([…]) and CD8 ([…]) were isolated from culture supernatants from hybridomas and were kind gifts from the MRC Cellular Immunology Unit, Oxford, UK. They were conjugated at IMB according to standard protocols. Fluorochrome-conjugated mAbs against CD3 (G4.18) was obtained from BD Biosciences, including PerCP Streptavidin. A four-color panel consisting of reagents in FITC/AI488, PE, PerCP Streptavidin and AI647 was applied and analyzed on a FACS Calibur (BD) equipped with the CellQuest software (BD). Dot plot and histogram gates were set using isotype control antibodies.

| Compound | IC50 (HEPG2) | IC50 (MDA-MB-435S) | IC50 (remaining cell lines) | cytochrome-C in the supernatant compared to untreated control cells (A375 cells) | percentage of T cells ([1]; primary treated lesion) | CD8+ cells within the CD3+ T cell population ([1]; primary tumor of treated rats) | CD8+ cells within the CD3+ T cell population ([1]; secondary tumor of treated rats) | increase of percentage of T cells compared to untreated rats ([1]; secondary tumor tissue) | percentage of T cells ([1]; secondary tumor tissue) |
| --- | --- | --- | --- | --- | --- | --- | --- | --- | --- |
| Cl.Cl.NCCNC(=O)C(CN)(CCCc1ccccc1)CCCc1ccccc1 [LTX-401] | 35.4 µM | 13.5 µM | 19 to 32 µM |  |  |  |  |  |  |
| K-K-W-W-K-K-W-Dip-K-NH2 (KKWWKKW[Dip]K-NH2) [LTX-315] |  |  |  | three times more | 28.35±11.78% | 62.77±13.3 | 45.8±5.4 | 3 fold | 39.83±17.4% |
